One block for each compound: values may come before it.
Assays:
[1] = Lipophilicity, logD of the compound at pH 7.4; type: physicochemical; conditions: buffer
Translocator protein [2] = molecular target: T1, Translocator protein (Homo sapiens, UniProt P30536)
Description: Binding affinity to human mitochondrial TSPO

Albumin = Albumin (Macaca fascicularis, UniProt A2V9Z4)
Description: Binding affinity to monkey albumin

physchem [3] = conditions: buffer, pH 6.8
Description: Lipophilicity, logD of compound at pH 6.8

Translocator protein [4] = molecular target: T1, Translocator protein; remark: listed apart in the source
Description: Binding affinity to human TSPO assessed as inhibition constant

Translocator protein [5] = molecular target: Translocator protein (Rattus norvegicus, UniProt P16257)
Description: Binding affinity to rat TSPO receptor assessed as inhibition constant

physchem [6] = conditions: buffer, pH 7.4
Description: Lipophilicity, logD of compound at pH 7.4 by HPLC analysis

T1 sequence (P30536 whole entry): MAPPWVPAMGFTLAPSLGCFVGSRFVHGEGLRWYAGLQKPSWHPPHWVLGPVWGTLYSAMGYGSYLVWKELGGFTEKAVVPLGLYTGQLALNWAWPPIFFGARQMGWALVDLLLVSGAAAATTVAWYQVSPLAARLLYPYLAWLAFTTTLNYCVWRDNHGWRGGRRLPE
Translocator protein (Rattus norvegicus, UniProt P16257), sequence (P16257 whole entry, looked up): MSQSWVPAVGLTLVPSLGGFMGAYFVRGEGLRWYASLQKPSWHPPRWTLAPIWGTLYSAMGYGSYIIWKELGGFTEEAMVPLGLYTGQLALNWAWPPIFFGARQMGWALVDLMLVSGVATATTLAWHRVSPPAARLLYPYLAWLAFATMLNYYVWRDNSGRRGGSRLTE
Albumin, sequence (A2V9Z4 whole entry): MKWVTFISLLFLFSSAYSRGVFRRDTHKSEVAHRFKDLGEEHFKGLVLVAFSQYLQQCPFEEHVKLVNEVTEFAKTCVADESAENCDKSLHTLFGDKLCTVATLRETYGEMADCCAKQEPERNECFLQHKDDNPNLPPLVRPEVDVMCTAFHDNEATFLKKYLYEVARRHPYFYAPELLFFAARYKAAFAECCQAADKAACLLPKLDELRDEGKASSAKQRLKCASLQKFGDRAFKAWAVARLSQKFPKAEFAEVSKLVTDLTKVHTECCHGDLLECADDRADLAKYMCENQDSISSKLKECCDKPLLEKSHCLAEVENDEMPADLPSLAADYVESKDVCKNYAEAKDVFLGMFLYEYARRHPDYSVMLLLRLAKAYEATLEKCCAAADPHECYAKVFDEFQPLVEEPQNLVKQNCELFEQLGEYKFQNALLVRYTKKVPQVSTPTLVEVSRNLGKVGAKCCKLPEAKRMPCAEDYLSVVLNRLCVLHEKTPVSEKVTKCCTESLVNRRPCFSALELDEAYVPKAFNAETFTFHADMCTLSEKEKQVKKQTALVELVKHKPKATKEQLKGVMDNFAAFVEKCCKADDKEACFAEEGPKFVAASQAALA

- logD [1]: 3.01
- Ki (Translocator protein [2]): 2.2 nM
Compound: CC(=O)N(Cc1ccccc1O[11CH3])c1cnccc1Oc1ccccc1

- logD (physchem [6]): 3.97
Compound: CC[C@@H](C)N([11CH3])C(=O)c1cc2ccccc2c(-c2ccccc2Cl)n1

- logD (physchem [6]): 3.81
Compound: COc1ccc(OCC[18F])c(CN(C(C)=O)c2cc(F)ccc2Oc2ccccc2)c1

Further lines, the compound ahead of its results:

Compound: COc1ccccc1CN(C(=O)C[18F])c1cnccc1Oc1ccccc1
- Ki (Albumin): 0.3 nM
- logD (physchem [3]): 4.01
- Ki (Translocator protein [4]): 0.997 nM
- Ki (Translocator protein [5]): 0.18 nM

Compound: CCCN(CCC)C(=O)Cc1c(-c2ccc(OCC[18F])cc2)nc2c(Cl)cc(Cl)cn12
- logD (physchem [6]): 3

Reference: ChEMBL document CHEMBL5344430, “Targeting the Translocator Protein (18 kDa) in Cardiac Diseases: State of the Art and Future Opportunities” (J Med Chem, 2024)
